Results taken from ChEMBL document CHEMBL4422615, “Novel non-xanthine antagonist of the A2B adenosine receptor: From HTS hit to lead structure” (Eur J Med Chem, 2019).

Legend:
[1] = Intrinsic clearance in rat hepatocytes by MS/MS analysis; assay type: ADME, cell-based, Hepatocyte; settings: read-out: CLH (converted)
[2] = molecular target: T1, Adenosine receptor A2b (Homo sapiens, UniProt P29275); test: Displacement of [3H]DPCPX from human A2B adenosine receptor expressed in HEK293 cell membranes after 60 mins by radioligand displacement assay
T1 sequence (P29275 whole entry): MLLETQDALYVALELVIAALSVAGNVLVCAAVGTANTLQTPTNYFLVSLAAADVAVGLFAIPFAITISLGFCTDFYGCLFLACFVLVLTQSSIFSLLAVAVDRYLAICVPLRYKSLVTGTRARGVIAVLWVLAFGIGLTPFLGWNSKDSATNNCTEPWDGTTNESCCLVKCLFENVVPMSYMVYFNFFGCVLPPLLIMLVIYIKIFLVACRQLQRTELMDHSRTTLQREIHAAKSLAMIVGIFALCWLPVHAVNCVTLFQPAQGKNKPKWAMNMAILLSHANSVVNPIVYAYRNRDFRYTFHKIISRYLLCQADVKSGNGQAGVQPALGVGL

[3] = species on record: Homo sapiens; test: Selectivity index, ratio of IC50 for human A2A adenosine receptor expressed in HEK293 cell membranes to IC50 for human A2B adenosine receptor expressed in HEK293 cell membranes; assay type: cell-based
[4] = species on record: Homo sapiens; test: Selectivity index, ratio of IC50 for human A3 adenosine receptor expressed in HEK293 cell membranes to IC50 for human A2B adenosine receptor expressed in HEK293 cell membranes; assay type: cell-based
[5] = species on record: Homo sapiens; test: Selectivity index, ratio of IC50 for human A1 adenosine receptor expressed in CHO cell membranes to IC50 for human A2B adenosine receptor expressed in HEK293 cell membranes; assay type: cell-based

predicted hepatic clearance [1] [mL/min/kg] | IC50 [2] [nM] | Structure (SMILES) | Ratio IC50 [3] | Ratio IC50 [4] | Ratio IC50 [5]
68.3 | 14 | COCCn1c(=O)n(CCc2ccccc2)c(=O)c2c(C)c(C(O)C3CC3)sc21 (stereo not drawn) | 11 | 480 | 10
 | 190 | COCCn1c(=O)n(CCc2ccccc2)c(=O)c2c(C)c(C(=O)c3cn(C)cn3)sc21 | 9 | 35 | 4
 | 1500 | COCCn1c(=O)n(CC2(c3ccccc3)CC2)c(=O)c2c(C)csc21 | 7 |  | 1
55 | 2100 | COCCn1c(=O)n(CCc2ccccc2)c(=O)c2c(C)c(C(=O)O)sc21 | 5 |  | 5
 | 1100 | Cc1csc2c1c(=O)n(CCc1ccccc1)c(=O)n2Cc1nc2cc(S(N)(=O)=O)ccc2o1 | 2 | 6 | 0.83
6.83 to 10 | 200 | CCn1c(=O)c2c(C)c(C(=O)N3CC(O)C3)sc2n(CCC(F)(F)F)c1=O | 7 | 32 | 8
53.3 | > 10000 | CCN(CC)C(=O)c1sc2c(c1N)c(=O)n(C)c(=O)n2C | 0.73 | 0.61 | 0.62
 | 2800 | COCCn1c(=O)n(CCc2ccccc2)c(=O)c2c(C)c(C(F)(F)c3ccccc3)sc21 | 3 | 2 | 0.36
61.7 | 280 | COCCn1c(=O)n(CCc2cccnc2)c(=O)c2c(C)csc21 | 29 | 23 | 39
 | 97 | COCCn1c(=O)n(CCc2ccccc2)c(=O)c2c3c(sc21)CCC3 |  | 69 | 16
65 | 430 | COCCn1c(=O)n(CCc2ccccc2)c(=O)c2c(C)c(C(N)=O)sc21 | 18 | 16 | 8
 | 200 | COCCn1c(=O)n(CCc2ccccc2)c(=O)c2c(C)c(C)sc21 |  | 33 | 12
66.7 | 2.4 | COCCn1c(=O)n(CCc2ccccc2)c(=O)c2c(C)c(Cc3nc[nH]c3C)sc21 | 180 | 2800 | 93
 | 790 | COCCn1c(=O)n(CCc2ccccc2)c(=O)c2c(C)c(C(=O)C3CC3)sc21 | 1 | 8 | 0.57
 | > 10000 | COCCn1c(=O)n(CCN2CCS(=O)(=O)CC2)c(=O)c2c(C)csc21 | 1 | 1 | 1
 | 250 | COCCn1c(=O)n(CCc2ccccc2)c(=O)c2c(C)c(COC3CCCC3)sc21 | 7 | 27 | 4
 | 390 | CCn1c(=O)c2c3c(sc2n(CCOC)c1=O)CCCC3 | 3 | 17 | 5
 | 130 | Cc1csc2c1c(=O)n(CCc1ccccc1)c(=O)n2Cc1ncc[nH]1 | 35 | 51 | 11
 | 150 | COCCn1c(=O)n(CCc2ccccc2)c(=O)c2c(C)c(CO)sc21 | 40 | 43 | 11
61.7 | 200 | COCCn1c(=O)n(CCc2ccccc2)c(=O)c2c(C)c(C(=O)N3CC(O)C3)sc21 |  |  | 
 | > 10000 | COCCn1c(=O)n(Cc2ccccc2)c(=O)c2c(C)csc21 | 1 | 1 | 1
 | 4700 | COCCn1c(=O)n(CCc2ccccc2)c(=O)c2ccsc21 | 2 | 1 | 2
 | 220 | CCn1c(=O)c2c3c(sc2n(CCOC)c1=O)CCC3 | 11 | 30 | 18
 | 135 | Cc1csc2c1c(=O)n(CCc1ccccc1)c(=O)n2CCF |  |  | 
66.7 | 440 | COCCn1c(=O)n(CC(F)(F)c2ccccc2)c(=O)c2c(C)csc21 | 25 |  | 9
 | 3300 | COCCn1c(=O)n(CCc2ccccc2)c(=O)c2c(C)c(Cl)sc21 | 3 |  | 3
 | 1700 | Cc1csc2c1c(=O)n(CCc1ccccc1)c(=O)n2CCc1ccc(S(N)(=O)=O)cc1 | 6 | 4 | 2
 | 210 | COCCn1c(=O)n(CCc2ccccc2F)c(=O)c2c(C)csc21 |  |  | 

More lines, now with the values behind:

Structure (SMILES) | predicted hepatic clearance [1] [mL/min/kg] | IC50 [2] [nM] | Ratio IC50 [3] | Ratio IC50 [4] | Ratio IC50 [5]
CCOC(=O)c1sc2c(c1C)c(=O)n(CCc1ccccc1)c(=O)n2CCOC |  | 1700 | 6 | 4 | 2
Cc1csc2c1c(=O)n(CCc1ccccc1)c(=O)n2Cc1nccn1C |  | 145 | 21 | 46 | 4
COCCn1c(=O)n(CCc2ccccc2)c(=O)c2c(C)c(Cc3c[nH]c(C)n3)sc21 | 61.7 | 8.8 | 510 | 750 | 110
CCN(CCO)C(=O)c1sc2c(c1C)c(=O)n(CC)c(=O)n2CCC(F)(F)F | 40 | 50 | 21 | 130 | 13
CCn1c(=O)c2c(C)csc2n(CCOC)c1=O |  | 640 | 11 | 10 | 6
Cc1csc2c1c(=O)n(CCc1ccccc1)c(=O)n2CC1CCCO1 (racemic) |  |  | 21 | 13 | 13
COCCn1c(=O)n(CCc2ccccc2)c(=O)c2c(C)c(C(C)(O)C3CC3)sc21 (stereo not drawn) | 66.7 | 150 | 6 | 45 | 2
CCN(CC)C(=O)c1sc2c(c1C)c(=O)n(CCOC)c(=O)n2CCC(F)(F)F | 60 | 97 | 0.83 | 68 | 22
COCCn1c(=O)n(CCc2ccccc2)c(=O)c2c(C)c(Cc3ccccc3)sc21 |  | 540 | 4 |  | 0.19
COCCn1c(=O)n(CCc2ccccc2)c(=O)c2c(C)csc21 | 66.7 | 300 | 37 | 22 | 9
COCCn1c(=O)n(CCc2ccccc2)c(=O)c2c(C)c(CN3CCOCC3)sc21 |  | 760 | 7 | 9 | 1
COCCn1c(=O)n(CC(C)(C)C)c(=O)c2c(C)csc21 |  | 1600 | 7 | 4 | 7
Cc1csc2c1c(=O)n(CCc1ccccc1)c(=O)n2CC#N |  | 130 |  |  | 
CCn1c(=O)c2c(C)c(C)sc2n(CCOC)c1=O |  | 440 | 8 | 15 | 9
Cc1csc2c1c(=O)n(CCc1ccccc1)c(=O)n2CC(=O)Nc1cc(Cl)ccc1C(=O)O |  | > 10000 |  |  | 
COCCn1c(=O)n(CC=C(F)F)c(=O)c2c(C)csc21 |  | 4900 | 2 |  | 2
COCCn1c(=O)n(CCc2ccccc2)c(=O)c2c(C)c(C(=O)N(C)OC)sc21 |  | 390 | 4 | 17 | 9
COCCn1c(=O)n(CCc2ccccc2)c(=O)c2c3c(sc21)CCCC3 |  | 490 |  | 13 | 3
COCCn1c(=O)n(CCc2ccccc2)c(=O)c2c(C)c(C(=O)c3ccccc3)sc21 |  | 2300 | 3 |  | 0.6
COCCn1c(=O)n(CCc2ccccc2)c(=O)c2c(C)c(C(=O)N3CCCC3)sc21 |  | 260 |  |  | 
Cc1csc2[nH]c(=O)n(CCc3ccccc3)c(=O)c12 | 58.3 | 480 |  | 14 | 6
COCCn1c(=O)n(CCc2ccccc2)c(=O)c2c(C)c(CN3CCCC3)sc21 | 61.7 | 200 |  |  | 
COCCn1c(=O)n(CCc2ccccc2)c(=O)c2c(C)c(C(C)(O)c3cncn3C)sc21 (stereo not drawn) |  | 1200 | 3 | 6 | 2
COCCn1c(=O)n(CCC2CCOCC2)c(=O)c2c(C)csc21 |  | > 10000 | 1 | 1 | 1
Cc1csc2c1c(=O)n(CCc1ccccc1)c(=O)n2CC1CCCO1 (stereo in doubt; 7) |  |  | 62 | 37 | 46
COCCn1c(=O)n(CCc2ccccc2)c(=O)c2c(C)c(-c3ccccc3)sc21 |  | 4900 | 2 | 1 | 0.65
